Source: a compilation of properties of binary mixtures (doi:10.1021/acs.jced.1c00387)

Test: xn = mol fraction of the nth substance listed
Conditions: 81.5 kPa

CC(=O)[O-].CC[n+]1ccn(C)c1 + CC(C)(N)CO
viscosity (293.15 K, x2 = 0): 204 mPa·s
viscosity (303.15 K, x2 = 0): 106 mPa·s
viscosity (313.15 K, x2 = 0): 61.6 mPa·s
viscosity (323.15 K, x2 = 0): 39.4 mPa·s
viscosity (333.15 K, x2 = 0): 26.8 mPa·s
viscosity (343.15 K, x2 = 0): 19.3 mPa·s
viscosity (353.15 K, x2 = 0): 14.6 mPa·s

CC(C)(N)CO + CC(=O)[O-].CC[n+]1ccn(C)c1
viscosity (293.15 K, x1 = 0.2): 198 mPa·s
viscosity (293.15 K, x1 = 0.4): 136 mPa·s
viscosity (293.15 K, x1 = 0.6): 94.7 mPa·s
viscosity (303.15 K, x1 = 0.2): 104 mPa·s
viscosity (303.15 K, x1 = 0.4): 74.9 mPa·s
viscosity (313.15 K, x1 = 0.2): 60.3 mPa·s
viscosity (313.15 K, x1 = 0.4): 45.5 mPa·s
viscosity (313.15 K, x1 = 0.6): 33.2 mPa·s
viscosity (313.15 K, x1 = 0.8): 29.3 mPa·s
viscosity (313.15 K, x1 = 1): 54.4 mPa·s
viscosity (323.15 K, x1 = 0.2): 38.3 mPa·s
viscosity (323.15 K, x1 = 0.4): 29.9 mPa·s
viscosity (323.15 K, x1 = 0.8): 18.6 mPa·s
viscosity (323.15 K, x1 = 1): 25.5 mPa·s
viscosity (333.15 K, x1 = 0.2): 26 mPa·s
viscosity (333.15 K, x1 = 0.4): 20.9 mPa·s
viscosity (333.15 K, x1 = 0.6): 15.7 mPa·s
viscosity (333.15 K, x1 = 1): 14.6 mPa·s
viscosity (343.15 K, x1 = 0.2): 18.6 mPa·s
viscosity (343.15 K, x1 = 1): 9.2 mPa·s
viscosity (353.15 K, x1 = 0.2): 13.5 mPa·s
viscosity (353.15 K, x1 = 0.4): 11.7 mPa·s
viscosity (353.15 K, x1 = 0.6): 8.8 mPa·s
viscosity (353.15 K, x1 = 0.8): 6.8 mPa·s
viscosity (353.15 K, x1 = 1): 5.9 mPa·s

CN(CCO)CCO + CC(=O)[O-].CC[n+]1ccn(C)c1
viscosity (303.15 K, x1 = 1): 58 mPa·s
viscosity (323.15 K, x1 = 1): 22.1 mPa·s
viscosity (333.15 K, x1 = 1): 14.9 mPa·s
viscosity (343.15 K, x1 = 1): 10.4 mPa·s
viscosity (353.15 K, x1 = 1): 7.4 mPa·s

OCCNCCO + CC(=O)[O-].CC[n+]1ccn(C)c1
viscosity (293.15 K, x1 = 0.2): 202 mPa·s
viscosity (293.15 K, x1 = 0.4): 197 mPa·s
viscosity (293.15 K, x1 = 0.6): 214 mPa·s
viscosity (303.15 K, x1 = 0.4): 108 mPa·s
viscosity (303.15 K, x1 = 0.8): 175 mPa·s
viscosity (313.15 K, x1 = 0.4): 65.2 mPa·s
viscosity (313.15 K, x1 = 0.6): 68.6 mPa·s
viscosity (313.15 K, x1 = 0.8): 95.6 mPa·s
viscosity (313.15 K, x1 = 1): 191 mPa·s
viscosity (323.15 K, x1 = 0.2): 41.2 mPa·s
viscosity (323.15 K, x1 = 0.4): 42.4 mPa·s
viscosity (323.15 K, x1 = 0.6): 43.9 mPa·s
viscosity (323.15 K, x1 = 0.8): 56.8 mPa·s
viscosity (323.15 K, x1 = 1): 102 mPa·s
viscosity (333.15 K, x1 = 0.2): 28.3 mPa·s
viscosity (333.15 K, x1 = 0.6): 29.8 mPa·s
viscosity (333.15 K, x1 = 0.8): 36.1 mPa·s
viscosity (333.15 K, x1 = 1): 58.2 mPa·s
viscosity (343.15 K, x1 = 0.2): 20.4 mPa·s
viscosity (343.15 K, x1 = 0.4): 21.2 mPa·s
viscosity (343.15 K, x1 = 0.6): 21.3 mPa·s
viscosity (343.15 K, x1 = 0.8): 24.4 mPa·s
viscosity (343.15 K, x1 = 1): 35.5 mPa·s
viscosity (353.15 K, x1 = 0.2): 15.3 mPa·s
viscosity (353.15 K, x1 = 0.4): 15.9 mPa·s
viscosity (353.15 K, x1 = 1): 23 mPa·s

CC(=O)[O-].CC[n+]1ccn(C)c1 + CN(CCO)CCO
viscosity (293.15 K, x2 = 0): 204 mPa·s
viscosity (293.15 K, x2 = 0.2): 193 mPa·s
viscosity (293.15 K, x2 = 0.6): 128 mPa·s
viscosity (293.15 K, x2 = 0.8): 109 mPa·s
viscosity (303.15 K, x2 = 0): 106 mPa·s
viscosity (303.15 K, x2 = 0.2): 105 mPa·s
viscosity (303.15 K, x2 = 0.4): 96 mPa·s
viscosity (303.15 K, x2 = 0.6): 76.2 mPa·s
viscosity (303.15 K, x2 = 0.8): 61.5 mPa·s
viscosity (313.15 K, x2 = 0): 61.6 mPa·s
viscosity (313.15 K, x2 = 0.2): 63.5 mPa·s
viscosity (313.15 K, x2 = 0.4): 59.8 mPa·s
viscosity (313.15 K, x2 = 0.6): 48.8 mPa·s
viscosity (313.15 K, x2 = 0.8): 39.1 mPa·s
viscosity (323.15 K, x2 = 0): 39.4 mPa·s
viscosity (323.15 K, x2 = 0.2): 41.3 mPa·s
viscosity (323.15 K, x2 = 0.6): 33.2 mPa·s
viscosity (323.15 K, x2 = 0.8): 26.4 mPa·s
viscosity (333.15 K, x2 = 0.2): 28.6 mPa·s
viscosity (333.15 K, x2 = 0.4): 28.1 mPa·s
viscosity (333.15 K, x2 = 0.6): 23.6 mPa·s
viscosity (333.15 K, x2 = 0.8): 18.7 mPa·s
viscosity (343.15 K, x2 = 0): 19.3 mPa·s
viscosity (343.15 K, x2 = 0.2): 20.7 mPa·s
viscosity (343.15 K, x2 = 0.4): 20.6 mPa·s
viscosity (343.15 K, x2 = 0.6): 17.5 mPa·s
viscosity (343.15 K, x2 = 0.8): 13.7 mPa·s
viscosity (353.15 K, x2 = 0.2): 15.7 mPa·s
viscosity (353.15 K, x2 = 0.4): 15.6 mPa·s
viscosity (353.15 K, x2 = 0.6): 13.4 mPa·s

CC(=O)[O-].CC[n+]1ccn(C)c1 + OCCNCCO
viscosity (323.15 K, x2 = 0): 39.4 mPa·s
viscosity (343.15 K, x2 = 0): 19.3 mPa·s
viscosity (353.15 K, x2 = 0): 14.6 mPa·s
